Reference: patent US20040254162A1, “Oxazolidinone derivatives as antimicrobials” (priority 2001, published 2004)
Values after ≈ are worked out from the molar mass of the structure shown.

Legend:
[1] = tested on: Ent. faecalis ATCC 29212; test: MIC, agar incorporation method; details: agar incorporation
[2] = tested on: MRSA 33; test: MIC, agar incorporation method; details: agar incorporation
[3] = tested on: VRE 6A (Ent. faecium 6A); test: MIC, agar incorporation method; details: agar incorporation
[4] = tested on: MRSA 15187; test: MIC, agar incorporation method; details: agar incorporation
[5] = tested on: S. aureus ATCC 25923; test: MIC, agar incorporation method; details: agar incorporation
[6] = tested on: Strep. pne. ATCC 6303; test: MIC, agar incorporation method; details: agar incorporation
[7] = tested on: S. pneum AB 34; test: MIC, agar incorporation method; details: agar incorporation
[8] = tested on: MRSA 562; test: In vivo activity against MRSA 562 (ED50); design: species or system Methicillin Resistant Staphylococcus aureus; details: PO; MRSA 562 infection
[9] = tested on: MRSA 562; test: MIC, agar incorporation method; details: for MIC: MRSA 562, Table 5; for MIC MRSA 562: agar incorporation, Table 1
[10] = tested on: Strep. pyog. ATCC 19615; test: MIC, agar incorporation method; details: agar incorporation
[11] = tested on: G +ve bacteria; test: Summary of in vitro activity (MIC)
[12] = tested on: S. aureus; test: Summary of in vitro activity (MIC); details: S. aureus
[13] = tested on: S. pneumoniae; test: Summary of in vitro activity (MIC); details: S. pneumoniae
[14] = tested on: E. faecalis; test: Summary of in vitro activity (MIC); details: E. faecalis

MIC E. faecalis 29212 [1] [µg/mL]	MIC MRSA 33 [2] [µg/mL]	MIC VRE 6A [3] [µg/mL]	MIC MRSA 15187 [4] [µg/mL]	MIC S. aureus 25923 [5] [µg/mL]	MIC S. pneum 6303 [6] [µg/mL]	MIC S. pneum AB 34 [7] [µg/mL]	MIC [9] [µg/mL]	MIC MRSA 562 [9] [µg/mL]	MIC S. pyogenes 19615 [10] [µg/mL]	Compound	ED50 (mg/kg body weight) PO [8] [mg/kg body weight]	other results
2 (≈ 4.21 µM)	2 (≈ 4.21 µM)	2 (≈ 4.21 µM)	2 (≈ 4.21 µM)	2 (≈ 4.21 µM)	2 (≈ 4.21 µM)	2 (≈ 4.21 µM)	2 (≈ 4.21 µM)	2 (≈ 4.21 µM)	0.5 (≈ 1.05 µM)	CC(=O)NC[C@H]1CN(c2ccc(N3CCN(C(=O)C(=O)c4cccs4)CC3)c(F)c2)C(=O)O1 [Compound No. 07, (S)-N[[3-[3-Fluoro-4-[N-1[4-{2-(2-thienyl)dicarbonyl}]piperazinyl]phenyl]2-oxo-5-oxazolidinyl]methyl]acetamide]	>25	
							2 (≈ 4.35 µM)			CC(=O)NC[C@H]1CN(c2ccc(N3CCN(Cc4ccc(NC=O)o4)CC3)c(F)c2)C(=O)O1 [Compound No. 67]	>25	
0.5 (≈ 1.02 µM)	1 (≈ 2.04 µM)	0.25 (≈ 0.511 µM)	1 (≈ 2.04 µM)	1 (≈ 2.04 µM)	0.5 (≈ 1.02 µM)	2 (≈ 4.09 µM)	0.5 (≈ 1.02 µM)	0.5 (≈ 1.02 µM)	0.125 (≈ 0.255 µM)	CC(=O)NC[C@H]1CN(c2ccc(N3CCC(N(C)Cc4ccc([N+](=O)[O-])o4)CC3)c(F)c2)C(=O)O1 [Compound No. 50, (S)-N-[[3-[4-[4-(N-methyl-N-2-furyl(5-nitro)methyl)aminopiperidine-1-yl]-3-fluorophenyl]-2-oxo-oxazolidin-5-yl]methyl]acetamide]		MIC50 ([11]; G +ve, Number 49): 1 µg/mL (≈ 2.04 µM); MIC90 ([11]; G +ve, Number 49): 2 µg/mL (≈ 4.09 µM); Geometric Mean of in vitro activity (MIC) ([11]; Gram + ve): 0.72 µg/mL; Geometric Mean of in vitro activity (MIC) [12]: 1 µg/mL; MIC50 ([12]; Number 8): 1 µg/mL (≈ 2.04 µM); MIC90 ([12]; Number 8): 2 µg/mL (≈ 4.09 µM); Geometric Mean of in vitro activity (MIC) [13]: 1.41 µg/mL; MIC50 ([13]; Number 19): 1 µg/mL (≈ 2.04 µM); MIC90 ([13]; Number 19): 2 µg/mL (≈ 4.09 µM); Geometric Mean of in vitro activity (MIC) [14]: 0.42 µg/mL; MIC50 ([14]; Number 7): 0.5 µg/mL (≈ 1.02 µM); MIC90 ([14]; Number 7): 1 µg/mL (≈ 2.04 µM)
2 (≈ 3.93 µM)	2 (≈ 3.93 µM)	1 (≈ 1.96 µM)	2 (≈ 3.93 µM)	2 (≈ 3.93 µM)	1 (≈ 1.96 µM)	1 (≈ 1.96 µM)			2 (≈ 3.93 µM)	CC(=O)NC[C@H]1CN(c2ccc(N3CCN(C(=O)c4ccc(Br)o4)CC3)c(F)c2)C(=O)O1 [Compound No. 04]	>25	
